Source: US11957695B2, “Methods and compositions targeting glucocorticoid signaling for modulating immune responses” (The Broad Institute, Inc., priority 2018, dated 2024)
Values joined by “and” are separate entries in the source; they are usually repeats but may differ in a detail not shown here. Equal values may be shown once.

B1: IL-27: heterodimeric cytokine and a member of the IL-12 family of cytokines that is produced by antigen presenting cells (protein, UniProt Q8NEV9 29-243; Q14213 21-229, looked up)
Interleukin-27 subunit alpha: FPRPPGRPQLSLQELRREFTVSLHLARKLLSEVRGQAHRFAESHLPGVNLYLLPLGEQLPDVSLTFQAWRRLSDPERLCFISTTLQPFHALLGGLGTQGRWTNMERMQLWAMRLDLRDLQRHLRFQVLAAGFNLPEEEEEEEEEEEEERKGLLPGALGSALQGPAQVSWPQLLSTYRLLHSLELVLSRAVRELLLLSKAGHSVWPLGFPTLSPQP
Interleukin-27 subunit beta: RKGPPAALTLPRVQCRASRYPIAVDCSWTLPPAPNSTSPVSFIATYRLGMAARGHSWPCLQQTPTSTSCTITDVQLFSMAPYVLNVTAVHPWGSSSSFVPFITEHIIKPDPPEGVRLSPLAERQLQVQWEPPGSWPFPEIFSLKYWIRYKRQGAARFHRVGPIEATSFILRAVRPRARYYVQVAAQDLTDYGELSDWSLPATATMSLGK

Assays:
[1] = biological target: T1, glucocorticoid receptor (GR) (Homo sapiens, UniProt P04150); details: cited from earlier work
T1 sequence (P04150 1-777): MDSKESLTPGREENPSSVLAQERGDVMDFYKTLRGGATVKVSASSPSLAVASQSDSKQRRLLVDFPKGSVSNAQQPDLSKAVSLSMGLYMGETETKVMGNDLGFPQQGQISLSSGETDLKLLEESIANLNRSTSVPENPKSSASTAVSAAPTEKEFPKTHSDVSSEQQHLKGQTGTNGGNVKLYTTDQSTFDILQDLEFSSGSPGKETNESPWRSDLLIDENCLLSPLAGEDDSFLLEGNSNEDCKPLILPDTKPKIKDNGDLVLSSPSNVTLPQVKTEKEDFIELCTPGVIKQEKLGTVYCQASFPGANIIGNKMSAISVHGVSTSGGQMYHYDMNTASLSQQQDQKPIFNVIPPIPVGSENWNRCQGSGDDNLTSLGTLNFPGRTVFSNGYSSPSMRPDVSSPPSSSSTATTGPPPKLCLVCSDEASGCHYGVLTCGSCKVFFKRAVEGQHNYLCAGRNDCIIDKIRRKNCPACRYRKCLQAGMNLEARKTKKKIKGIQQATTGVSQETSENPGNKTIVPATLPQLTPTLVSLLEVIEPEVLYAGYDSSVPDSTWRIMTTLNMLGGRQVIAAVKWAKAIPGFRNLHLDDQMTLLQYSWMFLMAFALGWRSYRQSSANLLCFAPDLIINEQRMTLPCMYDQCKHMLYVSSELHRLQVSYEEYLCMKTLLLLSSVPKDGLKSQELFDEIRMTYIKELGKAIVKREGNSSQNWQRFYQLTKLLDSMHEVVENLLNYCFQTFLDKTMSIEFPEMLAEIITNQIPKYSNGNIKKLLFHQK

[2] = in vivo; cited from earlier work
[3] = test system: Naïve CD8+ T cells; experiment: RNA-Seq of naïve CD8+ T cells cultured with anti CD3/28 in the presence of Dex (GC), IL-27 or GC+IL-27 (Tables 1, 2A, 2B, 5-7); assay type: cell-based, mouse
Procedure: (§1) Cell culture and treatment with glucocorticoid. CD8^+ T cells from splenocytes and lymph nodes were isolated using CD8 microbeads (Miltenyi). Cells were further stained with antibodies against CD8, CD62L and CD44, and CD8^+CD62L^hiCD44^lo naive cells were sorted by BD FacsAria (BD Biosciences). Sorted cells were cultured for 9 days as described below in DMEM supplemented with 10% (vol/vol) FCS, […], 1 mM sodium pyruvate, nonessential amino acids, L-glutamine, and 100 U/ml penicillin and 100 µg/ml streptomycin.
RNA-Seq data pre-processing. […] Heatmap figures were generated using pheatmap package^53.
Analysis of additive and non-additive effects. To test whether the glucocorticoid and IL-27 signaling pathways had additive or non-additive effects on gene expression, Applicants stimulated naïve CD8^+ T cells in the presence of Dex, IL-27, or Dex+IL-27 in vitro. Applicants tested for non-additive effects between IL-27 and glucocorticoid signaling using a negative binomial generalized linear model in order to account for both estimations of the mean and the dispersion across conditions, where dispersion describes the relationship between the mean and variance. The model was applied to the expression data using ANOVA between a model that takes into account the interaction between IL27 and Dex versus no interaction.

[4] = test system: Naïve CD8+ T cells; experiment: Quantitative RT-PCR of Prdm1, Nfil3 and Tcf7 in Ctrl, GC, IL-27 or GC+IL-27 treated cells; assay type: cell-based, mouse
Procedure: as §1
Quantitative PCR. Total RNA was extracted using RNeasy columns (Qiagen). Reverse transcription of mRNA was performed in a thermal cycler (Bio-Rad) using iScript cDNA Synthesis Kit (Bio-Rad). qPCR was performed in the Vii7 Real-Time PCR system (Applied Biosystems) using the primers for Taqman gene expression (Applied Biosystems). Data were normalized to the expression of Actb.

Row | Molecule | Glucocorticoid potency [1] | Terminal half-life [2] [h] | further results
1 | C[C@]12CCC(=O)C=C1CC[C@@H]1[C@@H]2[C@@H](O)C[C@@]2(C)[C@H]1CC[C@]2(O)C(=O)CO [Cortisol (hydrocortisone), Cortisol] | 1 |  | 
2 | C[C@]12CCC(=O)C=C1CC[C@@H]1[C@@H]2C(=O)C[C@@]2(C)[C@H]1CC[C@]2(O)C(=O)CO [Cortisone] | 0.8 |  | 
3 | CC(=O)OCC(=O)[C@H]1CC[C@H]2[C@@H]3CCC4=CC(=O)CC[C@]4(C)[C@H]3CC[C@]12C [Deoxycorticosterone acetate] | 0 |  | 
4 | C[C@H]1C[C@@H]2[C@H]([C@@H](O)C[C@@]3(C)[C@H]2CC[C@]3(O)C(=O)CO)[C@@]2(C)C=CC(=O)C=C12 [Methylprednisolone] |  | 18 to 40 | 
5 | C[C@]12C=CC(=O)C=C1CC[C@@H]1[C@@H]2[C@@H](O)C[C@@]2(C)[C@H]1CC[C@]2(O)C(=O)CO [Prednisolone] | 4 | 16 to 36 | 
6 | C[C@]12C=CC(=O)C=C1CC[C@@H]1[C@@H]2C(=O)C[C@@]2(C)[C@H]1CC[C@]2(O)C(=O)CO [Prednisone] |  | 16 to 36 | 
7 | C[C@]12C=CC(=O)C=C1CC[C@H]1[C@@H]3C[C@@H](O)[C@](O)(C(=O)CO)[C@@]3(C)C[C@H](O)[C@@]12F [Triamcinolone] | 5 | 12 to 36 | 
8 | B1 |  |  | transcriptional state of stimulated CD8+ T cells ([3]; FIG. 12): transcriptionally distinct; Tcf7 expression levels ([3]; three values per treatment, control cells 9.93, 8.28, 11.45): 5.37 and 7.39 and 5.57; Nupr1 expression levels ([3]; three values per treatment, control cells 12.77, 13.57, 13.47): 11.93 and 21.86 and 19.79; CD28 expression levels ([3]; three values per treatment, control cells 19.54, 18.14, 18.29): 48.93 and 37.2 and 39.84; Lilrb4 expression levels ([3]; three values per treatment, control cells 87.12, 92.82, 96.51): 73.62 and 94.25 and 105.87; Tcf7 expression (qPCR) [4]: dramatically reduced
